Patent publication US9988430B2, “Stable GLP-1 based GLP-1/glucagon receptor co-agonists” (Novo Nordisk A/S, priority 2014, dated 2018)
*1 amine or outer side, *2 acyl side, *3 side chain or, on linkers, in order; H or OH if unused. Where a SMILES comes first, the peptide text is derived from it. Bridges are numbered along the chain shown (N, C = ends). Roman numbers before positions name the chains, in order. Side-chain parts run from the residue outwards. [ ]: non-standard residue; d: D form. The star is where a group is joined. C18 diacid = O=C(O)CCCCCCCCCCCCCCCCC(=O)*; γGlu = O=C(O)[C@H](CCC(=O)[*:2])N[*:1]; Desaminohistidyl = O=C(CCc1c[nH]cn1)*; Ac4c = NC1(C(=O)O)CCC1; AEEA = NCCOCCOCC(=O)O; Aib = CC(C)(N)C(=O)O

Columns and labels:
[1] = Assay (V): chemical stability assessment by RP-UPLC; format: physicochemical; conditions: 14 days at 37° C. in phosphate buffer (pH 7.3)
Method: Assay (V): Chemical Stability Assessment
The purpose of this assay is to assess the chemical stability of the GLP-1 derivatives of the present invention in aqueous solutions.
Chemical stability of GLP-1 derivatives may be investigated by RP-UPLC separation and UV detection. Lyophilized samples are dissolved in a 8 mM Phosphate buffer pH 8.6, followed by adjustment to pH 7.3 using HCl to a final concentration of 333 μM. Samples are incubated for 14 days at 5° C. and 37° C. followed by RP-UPLC analysis. Purity is defined as the area percentage of the main peak in relation to the total area of all integrated peaks in each chromatogram. Purity loss, also referred to herein as chemical degradation, after 14 days at 37° C. is determined as the difference in purity between the samples incubated at 5° C. and 37° C., divided by the purity of the sample after incubation for 14 days at 5° C.
RP-UPLC analysis is performed using a Waters BEH130 2.1 mm×150 mm, 1.7 μm column operated at 50° C. and a flow rate of 0.4 mL/min using a mobile phase system consisting of A: 0.05% TFA in MQ-water, and B: 0.05% TFA in Acetonitrile. UV-detection is performed at 215 nm. The typical gradient profile used for most of the samples is shown below.
For some individual derivatives eluting at substantially different retention times compared with the majority of derivatives, some adjustments to the gradient profile are made to better enable purity assessment comparison across samples.

human GLP-1 receptor = molecular target: T1, human GLP-1 receptor (Homo sapiens, UniProt P43220); assay: Assay (II)(a): GLP-1 receptor binding, [125I]GLP-1 displacement, SPA on BHK membranes; conditions: displacement of [125I]GLP-1, membranes with human GLP-1 receptor; read-out: IC50 GLP-1R
T1 construct: expressed in transfected cells; host or cells: membranes of BHK cells, parent line BHKTS13, clone FCW467-12A
T1 sequence (P43220 24-463): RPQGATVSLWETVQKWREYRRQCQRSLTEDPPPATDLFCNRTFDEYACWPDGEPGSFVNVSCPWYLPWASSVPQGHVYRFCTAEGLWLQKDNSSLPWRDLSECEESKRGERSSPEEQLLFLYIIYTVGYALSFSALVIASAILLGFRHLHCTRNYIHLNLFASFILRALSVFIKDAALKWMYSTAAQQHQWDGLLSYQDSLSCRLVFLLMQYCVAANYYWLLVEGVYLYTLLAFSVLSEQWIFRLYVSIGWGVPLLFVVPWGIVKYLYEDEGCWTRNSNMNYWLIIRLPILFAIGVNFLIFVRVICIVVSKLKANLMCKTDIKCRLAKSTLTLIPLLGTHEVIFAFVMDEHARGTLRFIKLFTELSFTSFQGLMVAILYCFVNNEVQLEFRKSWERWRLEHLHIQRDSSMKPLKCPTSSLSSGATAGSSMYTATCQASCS
Method in brief: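 Membranes from BHK cells expressing human GLP-1 receptor with WGA SPA beads, [125I]GLP-1(7-36)NH2 (480 pM added solution) and compound in HEPES pH 7.4 buffer with EGTA, MgCl2, Tween 20. Incubated 2 h at 30° C; SPA counts fitted by non-linear regression to IC50 in nM.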

| SMILES | Chemical stability: Chemical degradation over 14 days at 37° C. [1] | IC50 (human GLP-1 receptor) |
| --- | --- | --- |
| CC[C@H](C)[C@H](NC(=O)[C@H](Cc1ccccc1)NC(=O)[C@H](CCC(=O)O)NC(=O)[C@H](CCCNC(=N)N)NC(=O)[C@H](C)NC(=O)[C@H](C)NC(=O)[C@H](CCC(N)=O)NC(=O)[C@H](CCC(=O)O)NC(=O)[C@H](CCC(=O)O)NC(=O)[C@H](CC(C)C)NC(=O)[C@H](Cc1ccc(O)cc1)NC(=O)[C@H](CCCCN)NC(=O)[C@H](CO)NC(=O)[C@@H](NC(=O)[C@H](CC(=O)O)NC(=O)[C@H](CO)NC(=O)[C@@H](NC(=O)[C@H](Cc1ccccc1)NC(=O)[C@@H](NC(=O)CNC(=O)[C@H](Cc1c[nH]cn1)NC(=O)C1(NC(=O)CCc2c[nH]cn2)CCC1)[C@@H](C)O)[C@@H](C)O)C(C)C)C(=O)N[C@@H](C)C(=O)N[C@@H](Cc1c[nH]c2ccccc12)C(=O)N[C@@H](CC(C)C)C(=O)N[C@@H](CC(C)C)C(=O)N[C@@H](CCCCNC(=O)CNC(=O)[C@H](CO)NC(=O)[C@H](CCC(=O)O)NC(=O)CNC(=O)[C@H](CO)NC(=O)CC[C@H](NC(=O)CC[C@H](NC(=O)CCCCCCCCCCCCCCCCC(=O)O)C(=O)O)C(=O)O)C(=O)N[C@H](C(N)=O)[C@@H](C)O [Example 9, N^ε34-[2-[[(2S)-2-[[(2S)-4-carboxy-2-[[2-[[(2S)-2-[[(4S)-4-carboxy-4-[[(4S)-4-carboxy-4-(17-carboxyheptadecanoylamino)butanoyl]amino]butanoyl]amino]-3-hydroxypropanoyl]amino]acetyl]amino]butanoyl]amino]-3-hydroxypropanoyl]amino]acetyl]-[Imp7,Acb8,His9,Lys18,Glu22,Arg26,Leu33,Thr35]-GLP-1-(7-35)-peptide amide] (I: Desaminohistidyl-[Ac4c]HGTFTSDVSKYLEEQAAREFIAWLLKT-NH2 / II: {C18 diacid-γGlu-γGlu}-SGESG; amide I:27-II:C) | 0.2% | 100 pM |
| CC[C@H](C)[C@H](NC(=O)[C@H](Cc1ccccc1)NC(=O)[C@H](CCC(=O)O)NC(=O)[C@H](CCCNC(=N)N)NC(=O)[C@H](C)NC(=O)[C@H](C)NC(=O)[C@H](CCC(N)=O)NC(=O)[C@H](CCC(=O)O)NC(=O)[C@H](CCC(=O)O)NC(=O)[C@H](CC(C)C)NC(=O)[C@H](Cc1ccc(O)cc1)NC(=O)[C@H](CCCCN)NC(=O)[C@H](CO)NC(=O)[C@@H](NC(=O)[C@H](CC(=O)O)NC(=O)[C@H](CO)NC(=O)[C@@H](NC(=O)[C@H](Cc1ccccc1)NC(=O)[C@@H](NC(=O)CNC(=O)[C@H](Cc1c[nH]cn1)NC(=O)C(C)(C)NC(=O)CCc1c[nH]cn1)[C@@H](C)O)[C@@H](C)O)C(C)C)C(=O)N[C@@H](C)C(=O)N[C@@H](Cc1c[nH]c2ccccc12)C(=O)N[C@@H](CC(C)C)C(=O)N[C@@H](CC(C)C)C(=O)N[C@@H](CCCCNC(=O)CC[C@H](NC(=O)CC[C@H](NC(=O)CC[C@H](NC(=O)CC[C@H](NC(=O)CCCCCCCCCCCCCCCCC(=O)O)C(=O)O)C(=O)O)C(=O)O)C(=O)O)C(=O)N[C@H](C(N)=O)[C@@H](C)O [Example 6, N^ε34-[(4S)-4-carboxy-4-[[(4S)-4-carboxy-4-[[(4S)-4-carboxy-4-[[(4S)-4-carboxy-4-(17-carboxyheptadecanoylamino)butanoyl]amino]butanoyl]amino]butanoyl]amino]butanoyl]-[Imp7,Aib8,His9,Lys18,Glu22,Arg26,Leu33,Thr35]-GLP-1-(7-35)-peptide amide] (Desaminohistidyl-[Aib]HGTFTSDVSKYLEEQAAREFIAWLLK([γGlu-γGlu-γGlu-γGlu-C18 diacid])T-NH2) | 0.1% | 300 pM |
| CC[C@H](C)[C@H](NC(=O)[C@H](Cc1ccccc1)NC(=O)[C@H](CCC(=O)O)NC(=O)[C@H](CCCNC(=N)N)NC(=O)[C@H](C)NC(=O)[C@H](C)NC(=O)[C@H](CCCNC(=N)N)NC(=O)CNC(=O)[C@H](CCC(=O)O)NC(=O)[C@H](CC(C)C)NC(=O)[C@H](Cc1ccc(O)cc1)NC(=O)[C@H](CCCNC(=N)N)NC(=O)[C@H](CO)NC(=O)[C@@H](NC(=O)[C@H](CC(=O)O)NC(=O)[C@H](CO)NC(=O)[C@@H](NC(=O)[C@H](Cc1ccccc1)NC(=O)[C@@H](NC(=O)CNC(=O)[C@H](Cc1c[nH]cn1)NC(=O)C(C)(C)NC(=O)CCc1c[nH]cn1)[C@@H](C)O)[C@@H](C)O)C(C)C)C(=O)N[C@@H](C)C(=O)N[C@@H](Cc1c[nH]c2ccccc12)C(=O)N[C@@H](CC(C)C)C(=O)N[C@@H](CC(C)C)C(=O)N[C@@H](CCCCNC(=O)CC[C@H](NC(=O)CC[C@H](NC(=O)COCCOCCNC(=O)CC[C@H](NC(=O)CC[C@H](NC(=O)CCCCCCCCCCCCCCCCC(=O)O)C(=O)O)C(=O)O)C(=O)O)C(=O)O)C(=O)NCC(=O)N[C@@H](C)C(=O)NCC(=O)O [Example 35, N^ε34-[(4S)-4-carboxy-4-[[(4S)-4-carboxy-4-[[2-[2-[2-[[(4S)-4-carboxy-4-[[(4S)-4-carboxy-4-(17-carboxyheptadecanoylamino)butanoyl]amino]butanoyl]amino]ethoxy]ethoxy]acetyl]amino]butanoyl]amino]butanoyl]-[Imp7,Aib8,His9,Arg18,Arg23,Arg26,Leu33,Ala36]-GLP-1-(7-37)-peptide] (Desaminohistidyl-[Aib]HGTFTSDVSRYLEGRAAREFIAWLLK([γGlu-γGlu-AEEA-γGlu-γGlu-C18 diacid])GAG-OH) |  | 1000 pM |

More lines, now with the values ahead:

| Chemical stability: Chemical degradation over 14 days at 37° C. [1] | IC50 (human GLP-1 receptor) | SMILES |
| --- | --- | --- |
| 4.4% | 700 pM | CC[C@H](C)[C@H](NC(=O)[C@H](Cc1ccccc1)NC(=O)[C@H](CCC(=O)O)NC(=O)[C@H](CCCNC(=N)N)NC(=O)[C@H](C)NC(=O)[C@H](C)NC(=O)[C@H](CCC(N)=O)NC(=O)[C@H](CCC(=O)O)NC(=O)[C@H](CCC(=O)O)NC(=O)[C@H](CC(C)C)NC(=O)[C@H](Cc1ccc(O)cc1)NC(=O)[C@H](CCCCN)NC(=O)[C@H](CO)NC(=O)[C@@H](NC(=O)[C@H](CC(=O)O)NC(=O)[C@H](CO)NC(=O)[C@@H](NC(=O)[C@H](Cc1ccccc1)NC(=O)[C@@H](NC(=O)CNC(=O)[C@H](Cc1c[nH]cn1)NC(=O)C(C)(C)NC(=O)CCc1c[nH]cn1)[C@@H](C)O)[C@@H](C)O)C(C)C)C(=O)N[C@@H](C)C(=O)N[C@@H](Cc1c[nH]c2ccccc12)C(=O)N[C@@H](CC(C)C)C(=O)N[C@@H](CC(C)C)C(=O)N[C@@H](CCCCNC(=O)COCCOCCNC(=O)COCCOCCNC(=O)CC[C@H](NC(=O)CCCCCCCCCCCCCCCCC(=O)O)C(=O)O)C(=O)N[C@H](C(N)=O)[C@@H](C)O [Example 12, N^ε34-[2-[2-[2-[[2-[2-[2-[[(4S)-4-carboxy-4-(17-carboxyheptadecanoylamino)butanoyl]amino]ethoxy]ethoxy]acetyl]amino]ethoxy]ethoxy]acetyl]-[Imp7,Aib8,His9,Lys18,Glu22,Arg26,Leu33,Thr35]-GLP-1-(7-35)-peptide amide] (Desaminohistidyl-[Aib]HGTFTSDVSKYLEEQAAREFIAWLLK([AEEA-AEEA-γGlu-C18 diacid])T-NH2) |
| 0.4% | 500 pM | CC[C@H](C)[C@H](NC(=O)[C@H](Cc1ccccc1)NC(=O)[C@H](CCC(=O)O)NC(=O)[C@H](CCCNC(=N)N)NC(=O)[C@H](C)NC(=O)[C@H](C)NC(=O)[C@H](CCC(N)=O)NC(=O)[C@H](CCC(=O)O)NC(=O)[C@H](CCC(=O)O)NC(=O)[C@H](CC(C)C)NC(=O)[C@H](Cc1ccc(O)cc1)NC(=O)[C@H](CCCCN)NC(=O)[C@H](CO)NC(=O)[C@@H](NC(=O)[C@H](CC(=O)O)NC(=O)[C@H](CO)NC(=O)[C@@H](NC(=O)[C@H](Cc1ccccc1)NC(=O)[C@@H](NC(=O)CNC(=O)[C@H](Cc1c[nH]cn1)NC(=O)C(C)(C)NC(=O)CCc1c[nH]cn1)[C@@H](C)O)[C@@H](C)O)C(C)C)C(=O)N[C@@H](C)C(=O)N[C@@H](Cc1c[nH]c2ccccc12)C(=O)N[C@@H](CC(C)C)C(=O)N[C@@H](CC(C)C)C(=O)N[C@@H](CCCCNC(=O)COCCOCCNC(=O)COCCOCCNC(=O)CC[C@H](NC(=O)CC[C@H](NC(=O)CCCCCCCCCCCCCCCCC(=O)O)C(=O)O)C(=O)O)C(=O)N[C@H](C(N)=O)[C@@H](C)O [Example 5, N^ε34-[2-[2-[2-[[2-[2-[2-[[(4S)-4-carboxy-4-[[(4S)-4-carboxy-4-(17-carboxyheptadecanoylamino)butanoyl]amino]butanoyl]amino]ethoxy]ethoxy]acetyl]amino]ethoxy]ethoxy]acetyl]-[Imp7,Aib8,His9,Lys18,Glu22,Arg26,Leu33,Thr35]-GLP-1-(7-35)-peptide amide] (Desaminohistidyl-[Aib]HGTFTSDVSKYLEEQAAREFIAWLLK([AEEA-AEEA-γGlu-γGlu-C18 diacid])T-NH2) |
